The values that follow come from ChEMBL document CHEMBL6127043, “Design and synthesis of pyrano[2,3-c]pyrazole-4-aminoquinoline hybrids as effective antimalarial compounds” (Eur J Med Chem, 2024).

Data set [1] deals with Plasmodium falciparum. As to the kind of experiment: Antimalarial activity against chloroquine-resistant Plasmodium falciparum K1 incubated for 72 hrs by SYBR green I dye based fluorescence analysis. The format is functional, organism-based. To be noted: K1, 72 h.
Data set [2] is described as follows: Selectivity index, ratio of IC50 for cytotoxicity against African green monkey Vero cells to IC50 for antimalarial activity against Plasmodium falciparum W2. The conditions noted are these: Vero cells versus Plasmodium falciparum W2, read-out: Ratio IC50. The format is toxicity, cell-based.
Data set [3] has as its system Plasmodium falciparum. Kind of data set: Antimalarial activity against chloroquine-sensitive ring stage Plasmodium falciparum 3D7 infected in erythrocytes assessed as reduction in parasite growth measured at 48 hrs interval by Giemsa staining based microscopic analysis. Format: functional, organism-based. The conditions noted are these: 3D7, Erythrocyte.
A short description of data set [4]: Selectivity index, ratio of IC50 for cytotoxicity against human WRL68 cells to IC50 for antimalarial activity against Plasmodium falciparum K1 infected in erythrocytes. Format: toxicity, cell-based. The conditions noted are these: WRL68 cells versus Plasmodium falciparum K1 in erythrocytes, read-out: Ratio IC50.
A short description of data set [5]: Selectivity index, ratio of IC50 for cytotoxicity against human WRL68 cells to IC50 for antimalarial activity against Plasmodium falciparum 3D7 infected in erythrocytes. Format: toxicity, cell-based. The conditions noted are these: WRL68 cells versus Plasmodium falciparum 3D7 in erythrocytes, read-out: Ratio IC50.
Data set [6] relates to Plasmodium falciparum. Kind of data set: Antimalarial activity against chloroquine-resistant ring stage Plasmodium falciparum K1 infected in erythrocytes assessed as reduction in parasite growth measured at 48 hrs interval by Giemsa staining based microscopic analysis. The format is functional, organism-based. The conditions noted are these: K1, Erythrocyte.
The test system of data set [7] is Plasmodium falciparum. As to the kind of experiment: Resistance index, ratio of IC50 for antimalarial activity against chloroquine resistant Plasmodium falciparum K1 infected in erythrocytes to IC50 for antimalarial activity against chloroquine sensitive Plasmodium falciparum 3D7 infected in erythrocytes. The format is functional.
The nature of data set [8]: Cytotoxicity against human WRL68 cells assessed as reduction in cell viability incubated for 72 hrs by MTT assay. The format is toxicity, cell-based.
Data set [9] relates to Plasmodium falciparum. As to the kind of experiment: Antimalarial activity against Plasmodium falciparum NF54 incubated for 48 hrs by NBT reagent based assay. The format is functional, organism-based. The conditions noted are these: NF54, 48 h.

For the molecule `Clc1ccc2c(NCCn3cncc3C3CCCC3)ccnc2c1`, the IC50 in data set [1] is 340 nM.

Consider `O=C1c2ccc(N3CCN(CCO)CC3)cc2C(=O)N1CCCNc1ccnc2cc(Cl)ccc12`, for which the selectivity ratio in data set [2] is above 4200.

With `CCOC(=O)c1nn(CCNc2ccnc3cc(Cl)ccc23)c2c1C(c1ccccc1)C(C#N)=C(N)O2` (stereo not drawn), the IC50 in data set [3] stood at 19 nM; in [6] it was 419 nM. The figures for the selectivity ratio in [4] and in data set [5] were 195 and 4360, respectively. Moreover, the “Ratio IC50” value in [7] stood at 22.39. Besides, in data set [8], the half-inhibitory concentration (IC50) at 72 h is 81500 nM.

In the case of `CCOC(=O)c1nn(CCNc2ccnc3cc(Cl)ccc23)c2c1C(c1ccc(O)cc1)C(C#N)=C(N)O2` (stereo not drawn), the 50% inhibitory concentration (IC50) in data set [3] was determined as 15 nM; in [6], 2750 nM. The figures for the selectivity ratio in data set [4] and in data set [5] were 18 and 3200, respectively. For the same molecule, in [7], the “Ratio IC50” value was 180.66. In addition, the IC50 at 72 h in data set [8] was 48600 nM.

On to `CCOC(=O)c1nn(CCNc2ccnc3cc(Cl)ccc23)c2c1C(c1ccco1)C(C#N)=C(N)O2` (stereo not drawn), for which the IC50 in [3] stood at 25 nM; in [6], 207 nM. The selectivity ratio was 230 in data set [4] and 1920 in data set [5]. Moreover, the “Ratio IC50” value in [7] worked out at 8.34. For the same molecule, in data set [8], the IC50 at 72 h came to 47600 nM.

As to `CCOC(=O)c1nn(CCNc2ccnc3cc(Cl)ccc23)c2c1C(c1cccc([N+](=O)[O-])c1)C(C#N)=C(N)O2` (stereo not drawn), the IC50 turned out to be 28 nM in [3] and 106 nM in data set [6]. Moreover, the selectivity ratio in data set [4] was 333; in [5] it was 1260. In addition, in data set [7], the “Ratio IC50” value worked out at 3.8. Besides, the concentration for half-maximal inhibition (IC50) at 72 h in data set [8] was 35400 nM.

For the molecule `CCOC(=O)c1nn(CCNc2ccnc3cc(Cl)ccc23)c2c1C(c1ccc(O)c(Br)c1)C(C#N)=C(N)O2` (stereo not drawn), the IC50 was 23 nM in data set [3] and 232 nM in data set [6]. The selectivity ratio was 265 in data set [4] and 2650 in [5]. For the same molecule, in [7], the “Ratio IC50” value was 10. Further, in data set [8], the IC50 at 72 h was found to be 61600 nM.

For `CCOC(=O)c1nn(CCNc2ccnc3cc(Cl)ccc23)c2c1C(c1cccc(O)c1)C(C#N)=C(N)O2` (stereo not drawn), the figures for the IC50 in data set [3] and in data set [6] were 17 nM and 1340 nM, respectively. Besides, the selectivity ratio turned out to be 51 in data set [4] and 3960 in data set [5]. In addition, the “Ratio IC50” value in data set [7] was determined as 77.46. The IC50 at 72 h in data set [8] is 68600 nM.

In the case of `CCOC(=O)c1nn(CCNc2ccnc3cc(Cl)ccc23)c2c1C(c1ccc(OC)cc1)C(C#N)=C(N)O2` (stereo not drawn), the IC50 stood at 21 nM in data set [3] and 254 nM in [6]. In addition, the selectivity ratio in data set [4] was 514; in data set [5], 6220. Further, the “Ratio IC50” value in data set [7] is on record as 12.1. Further, the IC50 at 72 h in data set [8] is 131000 nM.

Turning to `CCOC(=O)c1nn(CCNc2ccnc3cc(Cl)ccc23)c2c1C(c1c(O)ccc3ccccc13)C(C#N)=C(N)O2` (stereo not drawn), the half-maximal inhibitory concentration (IC50) in data set [3] worked out at 301 nM; in data set [6], 20 nM. For the same molecule, the selectivity ratio in data set [4] came out at 334; in data set [5] it was 22. The “Ratio IC50” value in [7] amounted to 0.07. Besides, the IC50 at 72 h in data set [8] was found to be 6690 nM.

Take `CCOC(=O)c1nn(CCNc2ccnc3cc(Cl)ccc23)c2c1C(c1cccs1)C(C#N)=C(N)O2` (stereo not drawn): the figures for the IC50 in data set [3] and in [6] were 23 nM and 37 nM, respectively. Further, the selectivity ratio in data set [4] came out at 1590; in data set [5], 2570. The “Ratio IC50” value in [7] came to 1.62. For the same molecule, the IC50 at 72 h in [8] is 59500 nM.

For the molecule `CCOC(=O)c1nn(CCNc2ccnc3cc(Cl)ccc23)c2c1C(c1ccc(C#N)cc1)C(C#N)=C(N)O2` (stereo not drawn), the figures for the IC50 in [3] and in data set [6] were 19 nM and 37 nM, respectively. Also, the selectivity ratio in data set [4] is above 4920; in data set [5], above 9450. In addition, the “Ratio IC50” value in data set [7] was 1.92. Further, the concentration for half-maximal inhibition (IC50) at 72 h in data set [8] is above 183000 nM.

In the case of `CCOC(=O)c1nn(CCNc2ccnc3cc(Cl)ccc23)c2c1C(c1ccc(OCC)cc1)C(C#N)=C(N)O2` (stereo not drawn), the IC50 is 24 nM in [3] and 86 nM in data set [6]. Also, the selectivity ratio was found to be 81 in data set [4] and 290 in [5]. Besides, the “Ratio IC50” value in data set [7] is 3.57. For the same molecule, in data set [8], the IC50 at 72 h came out at 6980 nM.

Turning to `CCOC(=O)c1nn(CCNc2ccnc3cc(Cl)ccc23)c2c1C(c1ccc([N+](=O)[O-])cc1)C(C#N)=C(N)O2` (stereo not drawn), the IC50 came to 110 nM in data set [3] and 294 nM in data set [6]. Further, the results for the selectivity ratio in [4] and in data set [5] were 193 and 563, respectively. In data set [7], the “Ratio IC50” value worked out at 2.92. In addition, in data set [8], the IC50 at 72 h worked out at 56900 nM.

`CCOC(=O)c1nn(CCNc2ccnc3cc(Cl)ccc23)c2c1C(c1cccc(OCC)c1)C(C#N)=C(N)O2` (stereo not drawn): the IC50 is 68 nM in data set [3] and 26 nM in data set [6]. Further, the selectivity ratio is 815 in [4] and 308 in data set [5]. Further, the “Ratio IC50” value in [7] is reported as 0.38. Also, the IC50 at 72 h in [8] turned out to be 20900 nM.

With `CCOC(=O)c1nn(CCNc2ccnc3cc(Cl)ccc23)c2c1C(c1ccc(Cl)cc1)C(C#N)=C(N)O2` (stereo not drawn), the half-maximal inhibitory concentration (IC50) is 26 nM in data set [3] and 48 nM in data set [6]. For the same molecule, the selectivity ratio in [4] was 252; in data set [5], 467. For the same molecule, in data set [7], the “Ratio IC50” value worked out at 1.85. Also, the IC50 at 72 h in data set [8] came out at 12100 nM.

For the molecule `CCOC(=O)c1nn(CCNc2ccnc3cc(Cl)ccc23)c2c1C(c1ccccn1)C(C#N)=C(N)O2` (stereo not drawn), the IC50 was 21 nM in data set [3] and 24 nM in [6]. In addition, the values for the selectivity ratio in data set [4] and in [5] were 3780 and 4350, respectively. Also, the “Ratio IC50” value in data set [7] amounted to 1.15. For the same molecule, the half-maximal inhibitory concentration (IC50) at 72 h in data set [8] was 90500 nM.

Consider `CCOC(=O)c1nn(CCNc2ccnc3cc(Cl)ccc23)c2c1C(c1ccc(O)cc1O)C(C#N)=C(N)O2` (stereo not drawn), for which the concentration for half-maximal inhibition (IC50) in [3] is 19 nM; in data set [6], 250 nM. Moreover, the selectivity ratio was 93 in data set [4] and 1220 in [5]. For the same molecule, the “Ratio IC50” value in [7] was found to be 13.13. Further, the IC50 at 72 h in data set [8] came out at 23200 nM.

On to `CCOC(=O)c1nn(CCNc2ccnc3cc(Cl)ccc23)c2c1C(c1ccccc1OC)C(C#N)=C(N)O2` (stereo not drawn), for which the figures for the IC50 in data set [3] and in data set [6] were 15 nM and 592 nM, respectively. In addition, the selectivity ratio in data set [4] was 44; in data set [5], 1730. Moreover, the “Ratio IC50” value in [7] was determined as 39.18. For the same molecule, the IC50 at 72 h in data set [8] came to 26100 nM.

Consider `CCOC(=O)c1nn(CCNc2ccnc3cc(Cl)ccc23)c2c1C(c1ccc(C(=O)O)cc1)C(C#N)=C(N)O2` (stereo not drawn), for which the IC50 in [3] amounted to 38 nM; in [6], 210 nM. Besides, the selectivity ratio was 411 in data set [4] and 2280 in [5]. Besides, the “Ratio IC50” value in data set [7] stood at 5.53. Moreover, the IC50 at 72 h in data set [8] turned out to be 86500 nM.

On to `CCOC(=O)c1nn(CCNc2ccnc3cc(Cl)ccc23)c2c1C(c1ccc(Br)cc1)C(C#N)=C(N)O2` (stereo not drawn), for which the IC50 came to 33 nM in data set [3] and 19 nM in [6]. In addition, the results for the selectivity ratio in data set [4] and in [5] were 309 and 178, respectively. The “Ratio IC50” value in data set [7] is listed as 0.58. In addition, the IC50 at 72 h in data set [8] is 5850 nM.

In data set [9], `O=C(/C=C/c1ccccc1Br)c1ccc(S(=O)(=O)NCCCNc2ccnc3cc(Cl)ccc23)cc1` yielded an IC50 of 100 nM.

As for `CCN(CC)CCCC(C)Nc1ccnc2cc(Cl)ccc12` (stereo not drawn) [CHLOROQUINE PHOSPHATE], the IC50 at 72 h in data set [8] came out at 60600 nM.
